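Dose response: 5 concentrations. Exposure: 48 h. Format: 96-well plates. Endpoint: linear interpolation; highest concentration if not reached. GI50 marks 50% less growth.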 Active and inactive are the calls of the source. No stated cut-off is given here; in the data, active = GI50 up to about 1.1 µM and inactive = higher.
Legend:
Assay in all cases: DTP human tumour cell line panel, 48 h
SR = test system: SR
A498 = test system: A498
ACHN = test system: ACHN
DU-145 = test system: DU-145
CCRF-CEM = test system: CCRF-CEM
SF-539 = test system: SF-539
UO-31 = test system: UO-31
K562 = test system: K562
786-0 = test system: 786-0
UACC-257 = test system: UACC-257
HT-29 = test system: HT-29
OVCAR-3 = test system: OVCAR-3
HL-60 = test system: HL-60
OVCAR-8 = test system: OVCAR-8
IGROV-1 = test system: IGROV-1
MDA-N = test system: MDA-N
NCI-H226 = test system: NCI-H226
CAKI-1 = test system: CAKI-1
NCI-H460 = test system: NCI-H460
UACC-62 = test system: UACC-62
MDA-MB-435 = test system: MDA-MB-435
SK-MEL-2 = test system: SK-MEL-2
MDA-MB-231 = test system: MDA-MB-231
SNB-19 = test system: SNB-19
SF-295 = test system: SF-295
MOLT-4 = test system: MOLT-4
COLO 205 = test system: COLO 205
Hs-578T = test system: Hs-578T
HCT-116 = test system: HCT-116
Malme-3M = test system: Malme-3M
NCI/ADR-RES = test system: NCI/ADR-RES
HOP-92 = test system: HOP-92
SK-MEL-5 = test system: SK-MEL-5
LOX IMVI = test system: LOX IMVI
SN12C = test system: SN12C
PC-3 = test system: PC-3
OVCAR-5 = test system: OVCAR-5
SW-620 = test system: SW-620
SF-268 = test system: SF-268
U-251 = test system: U-251
RPMI-8226 = test system: RPMI-8226
NCI-H23 = test system: NCI-H23
A549 = test system: A549
NCI-H522 = test system: NCI-H522
EKVX = test system: EKVX
SK-OV-3 = test system: SK-OV-3
TK-10 = test system: TK-10
BT-549 = test system: BT-549
HCT-15 = test system: HCT-15
RXF 393 = test system: RXF 393
M14 = test system: M14
KM12 = test system: KM12
SK-MEL-28 = test system: SK-MEL-28
HOP-62 = test system: HOP-62
T47D = test system: T47D
SNB-75 = test system: SNB-75
OVCAR-4 = test system: OVCAR-4
MCF7 = test system: MCF7
HCC 2998 = test system: HCC 2998

## COc1ccc(N2C(=O)C3c4[nH]c5ccc(C)cc5c4C4CCC(C)CC4C3C2=O)cc1 (configuration not stated)
SR
  GI50: 23.2 µM (inactive)
A498
  GI50: 21.6 µM (inactive)
ACHN
  GI50: 99.3 µM (inactive)
DU-145
  GI50: > 100 µM (inactive)
CCRF-CEM
  GI50: 18.5 µM (inactive)
SF-539
  GI50: 17.7 µM (inactive)
UO-31
  GI50: > 100 µM (inactive)
K562
  GI50: 66.7 µM (inactive)
786-0
  GI50: 25.7 µM (inactive)
UACC-257
  GI50: > 100 µM (inactive)
HT-29
  GI50: > 100 µM (inactive)
OVCAR-3
  GI50: 58.1 µM (inactive)
HL-60
  GI50: > 10 µM (inactive)
OVCAR-8
  GI50: > 100 µM (inactive)
IGROV-1
  GI50: > 100 µM (inactive)
MDA-N
  GI50: > 100 µM (inactive)
NCI-H226
  GI50: > 100 µM (inactive)
CAKI-1
  GI50: > 100 µM (inactive)
NCI-H460
  GI50: > 100 µM (inactive)
UACC-62
  GI50: 52.7 µM (inactive)
MDA-MB-435
  GI50: > 100 µM (inactive)
SK-MEL-2
  GI50: 33.3 µM (inactive)
MDA-MB-231
  GI50: 15.1 µM (inactive)
SNB-19
  GI50: 61.2 µM (inactive)
SF-295
  GI50: 27.1 µM (inactive)
MOLT-4
  GI50: 67.5 µM (inactive)
COLO 205
  GI50: > 100 µM (inactive)
Hs-578T
  GI50: 4.65 µM (inactive)
HCT-116
  GI50: 36.5 µM (inactive)
Malme-3M
  GI50: > 100 µM (inactive)
NCI/ADR-RES
  GI50: 44.7 µM (inactive)
HOP-92
  GI50: 76.2 µM (inactive)
SK-MEL-5
  GI50: > 100 µM (inactive)
LOX IMVI
  GI50: > 100 µM (inactive)
SN12C
  GI50: > 100 µM (inactive)
PC-3
  GI50: > 100 µM (inactive)
OVCAR-5
  GI50: > 100 µM (inactive)
SW-620
  GI50: > 100 µM (inactive)
SF-268
  GI50: 37.8 µM (inactive)
U-251
  GI50: 53.7 µM (inactive)
RPMI-8226
  GI50: > 100 µM (inactive)
NCI-H23
  GI50: 59 µM (inactive)
A549
  GI50: > 100 µM (inactive)
NCI-H522
  GI50: 92 µM (inactive)
EKVX
  GI50: > 100 µM (inactive)
SK-OV-3
  GI50: 25.3 µM (inactive)
TK-10
  GI50: 34.4 µM (inactive)
BT-549
  GI50: > 100 µM (inactive)
HCT-15
  GI50: > 100 µM
RXF 393
  GI50: 20.7 µM (inactive)
M14
  GI50: > 100 µM (inactive)

## Cc1ccc(Nc2nc(=O)c3c4ccccc4n(C(=O)OC(C)(C)C)c3s2)cc1
KM12
  GI50: 16.7 µM (inactive)
SR
  GI50: 12.8 µM (inactive)
A498
  GI50: 39.1 µM (inactive)
ACHN
  GI50: 35.5 µM (inactive)
SK-MEL-28
  GI50: 44.9 µM (inactive)
DU-145
  GI50: 33.7 µM (inactive)
CCRF-CEM
  GI50: 30.3 µM (inactive)
SF-539
  GI50: 26.6 µM (inactive)
HOP-62
  GI50: 27.9 µM (inactive)
UO-31
  GI50: 5.9 µM (inactive)
K562
  GI50: 27.4 µM (inactive)
786-0
  GI50: 15.3 µM (inactive)
UACC-257
  GI50: 51.1 µM (inactive)
HT-29
  GI50: 30.1 µM (inactive)
OVCAR-3
  GI50: 23.1 µM (inactive)
HL-60
  GI50: 24.8 µM (inactive)
OVCAR-8
  GI50: 39.7 µM (inactive)
IGROV-1
  GI50: 21.9 µM (inactive)
CAKI-1
  GI50: 18.2 µM (inactive)
NCI-H460
  GI50: 15.7 µM (inactive)
UACC-62
  GI50: 18.5 µM (inactive)
MDA-MB-435
  GI50: 4.9 µM (inactive)
SK-MEL-2
  GI50: 20.7 µM (inactive)
MDA-MB-231
  GI50: 33.1 µM (inactive)
SNB-19
  GI50: 79.1 µM (inactive)
SF-295
  GI50: 23 µM (inactive)
MOLT-4
  GI50: 53 µM (inactive)
COLO 205
  GI50: 35.4 µM (inactive)
Hs-578T
  GI50: 33.2 µM (inactive)
Malme-3M
  GI50: 28.4 µM (inactive)
NCI/ADR-RES
  GI50: 10.6 µM (inactive)
HOP-92
  GI50: 23.1 µM (inactive)
SK-MEL-5
  GI50: 13.2 µM (inactive)
LOX IMVI
  GI50: 18.7 µM (inactive)
PC-3
  GI50: 29 µM (inactive)
OVCAR-5
  GI50: 19.7 µM (inactive)
T47D
  GI50: 39.2 µM (inactive)
SNB-75
  GI50: > 100 µM (inactive)
SW-620
  GI50: 28.4 µM (inactive)
SF-268
  GI50: 20.6 µM (inactive)
U-251
  GI50: 30.1 µM (inactive)
OVCAR-4
  GI50: 37.9 µM (inactive)
RPMI-8226
  GI50: 17.8 µM (inactive)
NCI-H23
  GI50: 23.1 µM (inactive)
A549
  GI50: 28.8 µM (inactive)
NCI-H522
  GI50: 22.5 µM (inactive)
EKVX
  GI50: 29.1 µM (inactive)
SK-OV-3
  GI50: > 100 µM (inactive)
TK-10
  GI50: 37.8 µM (inactive)
BT-549
  GI50: 26.6 µM (inactive)
HCT-15
  GI50: 22.3 µM
M14
  GI50: 14.7 µM (inactive)

## C[C@]12CC[C@@H]3c4cc(OCC(F)(F)F)c(O)cc4/C(=N/O)C[C@H]3[C@@H]1CC[C@@H]2O
KM12
  GI50: 0.537 µM (active)
A498
  GI50: 0.0977 µM (active)
CCRF-CEM
  GI50: < 0.0163 µM (active)
SF-539
  GI50: 0.0188 µM (active)
UACC-257
  GI50: 0.0509 µM (active)
HT-29
  GI50: 3.62 µM (inactive)
MCF7
  GI50: 0.0247 µM (active)
OVCAR-3
  GI50: 0.0156 µM (active)
IGROV-1
  GI50: 0.147 µM (active)
MDA-N
  GI50: 0.011 µM (active)
NCI-H226
  GI50: 0.27 µM (active)
CAKI-1
  GI50: 0.0468 µM (active)
MDA-MB-435
  GI50: < 0.0126 µM (active)
SK-MEL-2
  GI50: 0.0351 µM (active)
MDA-MB-231
  GI50: 0.0592 µM (active)
SNB-19
  GI50: 0.025 µM (active)
COLO 205
  GI50: 16 µM (inactive)
Hs-578T
  GI50: 0.0215 µM (active)
Malme-3M
  GI50: 0.0299 µM (active)
HOP-92
  GI50: 0.33 µM (active)
SK-MEL-5
  GI50: 0.0232 µM (active)
SN12C
  GI50: 0.0873 µM (active)
PC-3
  GI50: 2.56 µM (inactive)
OVCAR-5
  GI50: 12.9 µM (inactive)
SNB-75
  GI50: < 0.01 µM (active)
SF-268
  GI50: 0.0484 µM (active)
U-251
  GI50: 0.026 µM (active)
OVCAR-4
  GI50: 7 µM (inactive)
A549
  GI50: 0.0372 µM (active)
EKVX
  GI50: 0.23 µM (active)
SK-OV-3
  GI50: 0.0384 µM (active)
TK-10
  GI50: 23.7 µM (inactive)
HCC 2998
  GI50: 2.82 µM (inactive)
BT-549
  GI50: < 0.01 µM (active)
